The test system of data set [1] is Leishmania mexicana cells. As to the kind of experiment: Comet assay of Leishmania mexicana cells. It is filed as cell-based. Further details: Comet tail length, mean (vary) / Comet tail length, median (Q50): unit not given here. The settings on record: L. mexicana, 24 h at MIC; MMS 0.011%; Kruskal-Wallis $means. The protocol:
We quantified DNA breaks by a comet assay to determine if these compounds are genotoxic. Here, L. mexicana cells were exposed for 24 h to MIC concentrations previously determined (see Materials and Methods Section) for each compound. Figure 1 represents the measurements obtained for tail length. All compounds generated DNA breaks expect 4s. […] Samples with DMSO and MMS (0.011%) were included as controls. Some representative pictures are shown at Figure S4. The effect of 4p could not be determined because the cells appear to be very damaged. The data was subjected via a Kruskal–Wallis one-way ANOVA (Statistical Analyses S2). […] These observations support a mechanism of action through the generation of DNA damage.
For leishmania, a method previously described for yeast was adapted. Briefly, after incubating the cells in presence of the compounds for 24 h, cells were collected and washed with buffer S (1 M sorbitol, 25 mM KH2PO4 in ultrapure water and adjust to pH 6.5 with NaOH). The pellet was resuspended in 400 µL of 1.5% LMA and 40 µL was spread (second layer) onto previously agarose-coated slides (first layer).
Slides were immersed in cold lysis buffer (30 mM NaOH, 1 M NaCl, 0.05 % (w/v) lauroylsarcosine, 50 mM EDTA, and 10 mM Tris–HCl, pH 10) for 25 min and then in cold electrophoresis alkaline buffer (30 mM NaOH, 10 mM EDTA, and 10 mM Tris–HCl, pH 10). They were then subjected to electrophoresis at 26V and 300 mA. Slides were immersed in neutralization buffer (10 mM Tris–HCl, pH 7.4; prepared in advance and stored at 4 °C) for 10 min at room temperature. The cells were then treated with proteinase K (20 min, 37 °C in humid chamber), followed by a new neutralization step. To dehydrate the slides, they were immersed in EtOH 90% and EtOH absolute for 10 min each. Finally, the slides were stained with Sybr Gold 1X.
The DNA migration was analyzed using a LEICA microscope with fluorescence (40×) by scoring 100 cells per slide in duplicate. The tail moment parameter was then analyzed by the Comet Score software.

Data set [2] concerns promastigotes of Leishmania mexicana. As to the kind of experiment: Leishmanicidal activity, MTT assay on promastigotes. Type of data set: cell-based. The settings on record: for SI (Selectivity Index) = Citotoxic activity/Leishmanicidal activity: CC50 RAW / IC50 L. mexicana; for IC50: Leishmania mexicana. Here is the method: The leishmanicidal activity of all compounds was evaluated by measuring promastigotes’ mitochondrial activity using MTT colorimetric assay as described previously. In this study, promastigotes from Leishmania mexicana were used. The species were confirmed by amplifying and sequencing cytochrome b gene. Promastigotes were cultured at 25 °C in Schneider’s Drosophila Medium (Gibco, Invitrogen, Carlsbad, CA, USA) supplemented with 10% fetal bovine serum (Eurobio, Les Ulis, France). The medium was renewed every third day. Parasite density was determined by counting the cells using a Neubauer chamber.
Into each well of a 96-well plate were dispensed 1 × 10^6 parasites/well. A stock solution of the compounds was prepared in DMSO (Sigma Aldrich, Saint Louis, MO, USA), and serial dilutions were added to the parasite suspension, leading to concentrations ranging from 100 to 0.001 µM, keeping the solvent concentration at 0.5%. The final volume was 200 µL for each well and triplicate conditions were carried out. Amphotericin B (Gibco) treatment (1 µM) untreated parasites and DMSO 0.5% were used as positive and negative controls, respectively. After exposure to the compounds for 48 h in culture medium, 20 µL of a solution of 5 mg/mL MTT dissolved in PBS were added to each well. The plate was incubated at 25 °C for 2 h in darkness. The plate was then centrifuged at 4400 rpm for 10 min and the culture medium was then aspirated; 50 µL of DMSO were added into each well to solubilize the formazan crystals and the plate was shaken for 5 min and then it was measured by recording changes in absorbance at 570 nm using a microplate reader Cytation 5 (BioTek) spectrophotometer. A reference wavelength of 630 nm was used as background subtraction. Optical densities were analyzed because the quantity of formazan is directly proportional to the number of viable parasites. Data were analyzed with the statistical software GraphPad Prism 7.02 (GraphPad Software, Corp.).

Data set [3] can be described thus: Cytotoxicity, MTT assay on RAW 264.7 macrophages. It is filed as cell-based. The settings on record: mouse. Here is the method: Raw 264.7 (ATCC® TIB-71™) was maintained in Dulbecco’s Modified Eagle Medium (DMEM) (Gibco, Invitrogen, Gibco, Carlsbad, CA, USA) supplemented with 10% fetal bovine serum (FBS) (Eurobio, Les Ulis, France) and 100 IU/mL penicillin + 100 μg/mL streptomycin (Gibco), at 37 °C in a 5% CO2 atmosphere. The medium was renewed once a week. The viability was determined using MTT (Thiazolyl Blue Tetrazolium Bromide) dye assay as described before for leishmanicidal activity assessment, with some variations. Here, 5 × 10^4 cells/well in a final volume of 100 µL were deposited into a 96-well plate, in triplicate. Saponin (2.4 mg/mL) and untreated cells were used as positive control and negative control, respectively. A stock solution was prepared in DMSO and immediately diluted in media to obtain different serial concentrations (100–0.01 µM). After 48 h exposure to the compounds, 10 µL/well of MTT (5 mg/mL MTT in PBS) were added, and the plate was incubated at 37 °C for 2 h in the dark. Cells were pelleted by centrifugation at 4400 rpm for 10 min and the media was removed. Then, 100 µL/well of DMSO were added and the absorbance at 570 nm was recorded; a reference wavelength of 630 nm was used for background subtraction.

A short description of data set [4]: DPPH radical scavenging assay. The settings on record: 30 min, 515 nm. Here is the method: The stock solution of the compounds was prepared by dissolving 4 in dimethyl sulfoxide (DMSO) to a concentration of 4 mg/mL. The solution was diluted with methanol until a concentration of 400 µg/mL was obtained and then used immediately.
The experimental procedure was adapted from the literature. Briefly, 100 µL of a 0.2 mM methanol solution of DPPH (2, 2-diphenyl-1-picrylhydrazyl) radical were added to 100 µL of methanolic solutions of 4 prepared as serial two-fold dilutions from the stock solution in 96-well microfilter plates. Standards and edaravone were also prepared in the same concentrations. The mixture was incubated in dark at room temperature for 30 min and the absorbance was read at 515 nm on a Cytation 5 (BioTek) spectrophotometer.
The % DPPH scavenging activity was then calculated by using the following formula:(1) % DPPH scavenging = 100 × [(Asample+DPPH−Asample blank)/(ADPPH−Asolvent)]
The antioxidant activity of the compound was expressed as IC50, which is defined as the concentration that could scavenge 50% of the DPPH free radical. The IC50 values were calculated in GraphPad Prism 7.02 (GraphPad Software, Corp.) The results are given as a mean ± standard deviation (SD) of experiments done in triplicate.

The next data set concerns RKO. The experiment in a line: MTS cell viability assay on RKO cells. It is filed as cell-based. The following applies: Homo sapiens, 100 µM, 48 h, Dox 1 µM, mean ± SEM, NA = no activity, read-out: Percentage (%) of inhibition, RKO. The protocol: (§1) Five tumor human cancer cell lines—cerebral astrocytoma (D-384), grade IV prostatic adenocarcinoma (PC-3), mammary adenocarcinoma (MCF-7), human colon carcinoma (RKO) and lung carcinoma (A-549)—along with one immortalized hamster cell line (CHO K-1) were used. The cells PC-3, MCF-7 and RKO were cultured in RPMI-1640, D-384 on DMEM and CHO K-1 on HAM F-12 medium supplemented with 10% fetal bovine serum (FBS, Invitrogen, Karlsruhe, Germany), 1% antibiotic-antimitotic solution (100 units/mL penicillin G, 100 µg/mL streptomycin, and 0.25 µg/mL amphotericin B, Gibco, Grand Island, NY, USA), and 1% L-glutamine (2 mM, Gibco). The cells were incubated at 37 °C in a 5% CO2 atmosphere. The viable cells were counted using the trypan blue exclusion method in a hemocytometer.
(§2) The MTS (5-[3-(carboxymethoxy)phenyl]-3-(4,5-dimethyl-2-thiazolyl)-2-(4-sulfo- phenyl)-2H-tetrazolium inner salt) cell viability assay was used to assess the inhibitory effects of the extracts on the survival of human cancer cell lines. A total of 3–5 × 10^3 cells/well were seeded into 96-well plates and were allowed to adhere for 24 h. […] Each concentration/assay was performed three times. Dimethyl sulfoxide (DMSO) was used as a negative control at a final concentration of 0.1% v/v, and 1 µM Doxorubicin was used as a positive control. The cells were incubated with the treatments for 48 h, after which 20 µL MTS (5 mg/mL, Aqueous One Solution Reagent, Gibco) was added and further incubated for 4 h at 37 °C. The absorbance was measured at 570 nm. The data obtained with cells treated with DMSO were defined to represent 100% viability.

In a further data set the test system is HeLa. As to the kind of experiment: MTS cell viability assay on HeLa cells. Type of data set: cell-based. The settings on record: Homo sapiens, 48 h, Dox 1 µM, mean ± SEM, NA = no activity, read-out: Percentage (%) of inhibition, HeLa.
The next data set has as its system A-549. As to the kind of experiment: MTS cell viability assay on A-549 cells. The following applies: Homo sapiens, A549; 100 µM, 48 h; Dox 1 µM; mean ± SEM; NA = no activity; read-out: Percentage (%) of inhibition, A-549. Type of data set: cell-based. The protocol: as §1, §2
The next data set concerns MCF-7. As to the kind of experiment: MTS cell viability assay on MCF-7 cells. Type of data set: cell-based. The settings on record: Homo sapiens, MCF7, 48 h, Dox 1 µM, mean ± SEM, NA = no activity, read-out: Percentage (%) of inhibition, MCF-7. The protocol: as §1, §2
A further data set deals with PC-3. As to the kind of experiment: MTS cell viability assay on PC-3 cells. It is filed as cell-based. The following applies: Homo sapiens, 100 µM, 48 h, Dox 1 µM, mean ± SEM, NA = no activity, read-out: Percentage (%) of inhibition, PC-3. Here is the method:
as §1, §2

For another data set, the system named is CHO-K1. As to the kind of experiment: MTS cell viability assay on immortalized CHO-K1 cells. The following applies: 48 h, Dox 1 µM, mean ± SEM, NA = no activity, read-out: Percentage (%) of inhibition, CHO-K1. It is filed as cell-based, hamster. Here is the method:
as §1, §2

Where [5] appears, read: read-out: IC50 original values, x.1 (Mean).
The mark [6] stands for this setting: L. mexicana promastigotes, 48 h, MTT, read-out: Leishmanicidal Activity IC50.
[7] abbreviates: RAW cells, 48 h, MTT, read-out: Cytotoxicity CC50.

Where two headings read alike, the source gives them in different places.

For the compound `Cc1nn(-c2ccccc2)c(O)c1C(c1cc(O)ccc1[N+](=O)[O-])c1c(C)nn(-c2ccccc2)c1O`, the melting point was 205 to 207 °C (dec.).

The compound `CC1=NN(c2ccccc2)C(=O)C12CC21C(=O)N(c2ccccc2)N=C1C` (stereo not drawn) registered a melting point of 165.8 to 167.9 °C.

`CC1=NN(c2ccccc2)C(=O)C1=Cc1ccc(N(C)C)cc1` gave a melting point of 190.7 to 193.2 °C.

The compound `COC1C=C(C(c2c(C)nn(-c3ccccc3)c2O)c2c(C)nn(-c3ccccc3)c2O)C=CC1(O)OC` (stereo not drawn) registered a melting point of 208 to 210 °C.

For the compound `COS(C)(=O)=O` [MMS, methyl methanesulfonate, reference compound], in data set [1], the “Comet tail length, mean (vary)” value is given as 67050000 and the “Comet tail length, median (Q50)” value stood at 65000000.

As to `C[C@@H]1[C@H](O)[C@@H](C)/C=C/C=C/C=C/C=C/C=C/C=C/C=C/[C@H](O[C@@H]2O[C@H](C)[C@@H](O)[C@H](N)[C@@H]2O)C[C@@H]2O[C@](O)(C[C@@H](O)C[C@@H](O)[C@H](O)CC[C@@H](O)C[C@@H](O)CC(=O)O[C@H]1C)C[C@H](O)[C@H]2C(=O)O` [Ampho B, Amphotericin B, reference compound], the “SI (Selectivity Index) = Citotoxic activity/Leishmanicidal activity” value in [2] was >31.8. In addition, the IC50 in [2] (setting [5]) amounted to 172 nM; in [2] (setting [6]), 170 ± 70 nM. The CC50 at 48 h in [3] (setting [7]) was > 5400 nM.

For the compound `O=C1O[C@H]([C@@H](O)CO)C(O)=C1O` [Ascorbic acid, ascorbic acid, reference compound], the concentration for half-maximal inhibition (IC50) in [4] was 14000 nM.

Compound `CC1=NN(c2ccccc2)C(=O)[C@@]12C(c1ccc(F)cc1)[C@@]21C(=O)N(c2ccccc2)N=C1C` (relative stereo) [4p, (5R*,6R*)-11-(4-Fluorophenyl)-4,10-dimethyl-2,8-diphenyl-2,3,8,9-tetraazadispiro[4.0.4.1]undeca-3,9-diene-1,7-dione] displayed a melting point of 128.9 to 129.9 °C. Further, the inhibition at 100 µM with RKO was 18.6 ± 1.37%. In the data set with HeLa, the inhibition at 100 µM stood at 5.98 ± 2.19%. For the same compound, the inhibition at 100 µM with A-549 came to 9.08 ± 1.14%. In addition, the inhibition at 100 µM in the data set on MCF-7 was determined as 13.6 ± 2.55%. Further, the inhibition at 100 µM in the data set with PC-3 was 5.25 ± 2.6%. Besides, in [2], the “SI (Selectivity Index) = Citotoxic activity/Leishmanicidal activity” value is listed as 6.1. For the same compound, in data set [2] (setting [5]), the IC50 is 575 nM. Besides, the IC50 in [2] (setting [6]) was determined as 570 ± 230 nM. Further, the CC50 at 48 h in data set [3] (setting [7]) was 3500 ± 900 nM. Further, the CC50 at 48 h in data set [3] (Statistical Analyses S1, unrounded mean of CC50 in RAW cells, unit inferred, read-out: CC50 original values, x.1 (Mean)) was 3550 nM. The inhibition at 100 µM in the data set on CHO-K1 stood at 1.95 ± 1.42%. Moreover, the IC50 in [4] is > 300000 nM.

For the origin of these results see paper PMC8398714, “Synthesis and Evaluation of Biological Activities of Bis(spiropyrazolone)cyclopropanes: A Potential Application against Leishmaniasis” (Molecules, 2021).
